Source: the supplement of paper PMC11061612

Columns and labels:
Test in all cases: Bliss excess, mean over the matrix (fraction); higher = more synergy
[1] = system: SW1710 (Bladder Carcinoma)
How it was run: (§1)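 Bliss excess equals the observed combination effect minus the expected value EA + EB − EA·EB, where EA and EB are the effects of each agent alone. Combination Emax is the second-highest inhibition within the matrix. Inhibition was scaled from CellTiter-Glo 2.0 luminescence, with 0 set by vehicle wells and 1 by blank wells, after 72 hours of two-drug dosing of cells plated in 1536-well plates.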

EW-11 (Ewing's Sarcoma) = system: EW-11 (Ewing's Sarcoma)
How it was run: as §1

[2] = system: NCI-H209 (Small Cell Lung Carcinoma)
How it was run: as §1

[3] = system: HuCCT1 (Biliary Tract Carcinoma)
How it was run: as §1

[4] = system: OV-56 (Ovarian Carcinoma)
How it was run: as §1

GAMG (Glioblastoma) = system: GAMG (Glioblastoma)
How it was run: as §1

[5] = system: ESS-1 (Other Solid Carcinomas)
How it was run: as §1

[6] = system: ALL-PO (B-Lymphoblastic Leukemia)
How it was run: as §1

[7] = system: OVCAR-5 (Ovarian Carcinoma)
How it was run: as §1

[8] = system: CAL-33 (Oral Cavity Carcinoma)
How it was run: as §1

[9] = system: L-428 (Hodgkin's Lymphoma)
How it was run: as §1

[10] = system: NUGC-4 (Gastric Carcinoma)
How it was run: as §1

[11] = system: BFTC-909 (Kidney Carcinoma)
How it was run: as §1

[12] = system: LNZTA3WT4 (Low Grade Glioma)
How it was run: as §1

[13] = system: YAPC (Pancreatic Carcinoma)
How it was run: as §1

LOXIMVI (Melanoma) = system: LOXIMVI (Melanoma)
How it was run: as §1

[14] = system: HH (T-Cell Non-Hodgkin's Lymphoma)
How it was run: as §1

[15] = system: FTC-133 (Thyroid Gland Carcinoma)
How it was run: as §1

[16] = system: MHH-CALL-2 (B-Lymphoblastic Leukemia)
How it was run: as §1

NCI-H2052 (Mesothelioma) = system: NCI-H2052 (Mesothelioma)
How it was run: as §1

Structure (SMILES)	Bliss excess [1]	Bliss excess (EW-11 (Ewing's Sarcoma))	Bliss excess [2]	Bliss excess [3]	Bliss excess [4]	Bliss excess (GAMG (Glioblastoma))	Bliss excess [5]	Bliss excess [6]	Bliss excess [7]	Bliss excess [8]	Bliss excess [9]	Bliss excess [10]	Bliss excess [11]	Bliss excess [12]	Bliss excess [13]	Bliss excess (LOXIMVI (Melanoma))	Bliss excess [14]	Bliss excess [15]	Bliss excess [16]	Bliss excess (NCI-H2052 (Mesothelioma))
CC1(C)CCC(CN2CCN(c3ccc(C(=O)NS(=O)(=O)c4ccc(NCC5CCOCC5)c([N+](=O)[O-])c4)c(Oc4cnc5[nH]ccc5c4)c3)CC2)=C(c2ccc(Cl)cc2)C1 [Venetoclax] + COc1cc(Nc2ncc3c(n2)-c2ccc(Cl)cc2C(c2c(F)cccc2OC)=NC3)ccc1C(=O)O [Alisertib] (first compound max 1 µM, 7x7, partner max 10 µM)	-0.0425	0.0369	0.318	-0.0148	0.001	-0.0024	0.0748	0.0529	-0.0703	-0.0356	0.0501	-0.0557	0.0116	0.023	-0.0354	-0.0332	-0.0223	0.0138	0.165	-0.0169
CC(=O)Nc1cccc(-n2c(=O)n(C3CC3)c(=O)c3c(Nc4ccc(I)cc4F)n(C)c(=O)c(C)c32)c1 [Trametinib] + Cc1nc(-c2cn3c(n2)-c2ccc(-c4cnn(C(C)(C)C(N)=O)c4)cc2OCC3)n(C(C)C)n1 [Taselisib] (first compound max 1 µM, 7x7, partner max 10 µM)	0.016	0.0443	-0.0014	0.182	-0.0025	0.0415	0.114	0.318	0.105	0.104	-0.0045	0.0347	0.182	0.0829	0.246	0.137	0.0868	-0.046	0.188	-0.0231
CC1(C)CCC(CN2CCN(c3ccc(C(=O)NS(=O)(=O)c4ccc(NCC5CCOCC5)c([N+](=O)[O-])c4)c(Oc4cnc5[nH]ccc5c4)c3)CC2)=C(c2ccc(Cl)cc2)C1 [Venetoclax] + CCN(CCO)CCCOc1ccc2c(Nc3cc(CC(=O)Nc4cccc(F)c4)[nH]n3)ncnc2c1 [AZD2811] (first compound max 1 µM, 7x7, partner max 1 µM)	0.0032	-0.0186	0.356	-0.0062	0.0214	-0.0368	0.0506	0.0129	-0.0482	-0.0261	0.0178	-0.0481	-0.0289	0.0218	-0.0103	0.0139	-0.0152	0.0192	-0.01	-0.0112
CC1(C)CCC(CN2CCN(c3ccc(C(=O)NS(=O)(=O)c4ccc(NCC5CCOCC5)c([N+](=O)[O-])c4)c(Oc4cnc5[nH]ccc5c4)c3)CC2)=C(c2ccc(Cl)cc2)C1 [Venetoclax] + Cn1cnc2c(F)c(Nc3ccc(Br)cc3Cl)c(C(=O)NOCCO)cc21 [Selumetinib] (first compound max 1 µM, 7x7, partner max 3 µM)	-0.0134	-0.0583	0.0379	-0.0128	-0.0188	-0.0576	-0.0393	0.0801	-0.069	-0.0292	-0.0042	-0.0467	-0.0315	-0.0321	-0.0474	-0.0228	-0.0387	-0.0232	0.0653	-0.0126
